# Measurements published in patent publication US12291513B2, “Pyridinium derivatives made by hydrothermal synthesis for use as anolytes in electrochemical cells” (Wisconsin Alumni Research Foundation, priority 2021, dated 2025).
# Like-named read-outs stand apart in the source and are kept apart here.
# Assays:
# Solubility in pure water = assay type: physicochemical; conditions: pure water, 18 °C, water, thermodynamic from solid
# Protocol: A measured amount of Dex-Vi was partially dissolved in pure water. The solution was then centrifuged. The supernatant was decanted, and the volume was measured. The remainder of the solid was dried in a vacuum oven and weighed. Finally, the weight of the remaining Dex-Vi was subtracted from the initial added mass to obtain the amount dissolved in the supernatant, permitting calculation of the maximum soluble concentration.
# Viscosity (rheometer) = assay type: physicochemical; conditions: for viscosity: pure water
# Protocol: Viscosity measurements were carried out using an Ares G2 rheometer (TA Instruments) with an advanced Peltier system at 25° C.
# [1] = Full RFB cell cycling, anolyte-limiting, BTMAP-Fc catholyte; conditions: for capacity decay in RFB cycling: anolyte-limiting
# Protocol: The RFB measurements were carried out in a custom-made zero-gap device previously reported by Li et al. (Li, W. et al., Chem 2018, 4 (11), 2644-2657; and Li, W. et al., Adv. Energy Mater. 2019, 9 (31), 1900918.) Both symmetric flow cell and RFB full cell measurements were conducted using a Bio-Logic SP-200 potentiostat at room temperature (˜20° C.). In symmetric cells, 0.1 M of active species in 1 M NaCl (pre-charged to 50% SOC of the first electron reduction using FcNCl as the counter cathode in bulk electrolysis) was utilized on both sides with the capacity limiting side (CLS) consisting of 5 mL of solution and the non-capacity limiting side (NCLS) consisting of 10 mL of solution separated by a Selemion AMV anion-exchange membrane (Asahi Glass Co.). The neat Dex-Vi full RFB cell cycling was performed using the product from the Dex-Vi synthesis directly without any purification. The neat product was diluted to roughly 0.1 M to pair with a 0.2 M BTMAP-Fc counter catholyte in excess capacity separated by an AMV membrane. Both the anolyte and catholyte were 5 mL in total volume with 0.5 M NaCl supporting electrolyte. The first electron high concentration Dex-Vi RFB full cell cycling was performed using 5 mL of 1.5 M Dex-Vi as the anolyte and 10 mL 0.75 M BTMAP-Fc as the catholyte, both of which were prepared in pure water without any supporting salt, with a DSV anion-exchange membrane. The second-electron high concentration full cell cycling was performed using 5 mL of 1.5 M Dex-Vi in water as the anolyte, 20 mL of 0.75 M BTMAP-Fc in water as the catholyte, and a DSV anion-exchange membrane. Rate performance was investigated using 0.1 M Dex-Vi anolyte and 0.2 M BTMAP-Fc catholyte both in 1 M NaCl with DSV anion-exchange membrane.
# Graphite plates (⅛-inch thickness, MWI Inc.) with a 20×20×1.2 mm pocket were used as current collectors for RFB devices. 4 cm^2 graphite felt electrodes (GFD 3 EA, […]®) were pre-treated at 400° C. in air for 6 hr before being used on both sides of the cell. 25×25 mm Selemion AMV or DSV was presoaked in 1.0 M NaCl for more than 24 hr before it was used as an anion-exchange membrane. The cell was assembled with four pieces of die cut PTFE sheets (0.04-inch thickness) as gaskets and tightened with eight #10-24 bolts. The electrolytes were pumped through the flow channels by a peristaltic pump (Cole-Parmer Masterflex L/S) via PharMed BPT tubing. The electrolyte flow rate was controlled at 20 mL·min^−1 for all RFB measurements. 10 mL custom made glass vials with two 4 mm OD electrolyte inlet/out arms were used as electrolyte reservoirs. […]
# [2] = Degradation kinetics in sodium hydroxide; conditions: one-and-one-half order overall
# Description: The chemical stability of the first redox processes of Dex-Vi was investigated using a symmetric, volumetrically-unbalanced flow cell inside an N2 glovebox.
structure (smiles),measurement,setting,value
"C[N+](C)(C)CC(O)C[n+]1ccc(-c2cc[n+](CC(O)C[N+](C)(C)C)cc2)cc1 (stereo not drawn) [Dex-Vi, bis(3-trimethylammonio-2-hydroxy)propyl viologen tetrachloride]",solubility,"Solubility in pure water; Example 2, read-out: Water Solubility",1800 mM
same,solubility,"Solubility in pure water; room temperature (~18° C.), read-out: maximum solubility",~2000 mM
same,"Viscosity at 1M, 25° C.","Viscosity (rheometer); 1M, 25° C.",14.2 cP
same,viscosity,Viscosity (rheometer); 0.25 M,1.1 cP
same,viscosity,Viscosity (rheometer); 0.50 M,1.8 cP
same,viscosity,Viscosity (rheometer); 1.0 M,4.7 cP
same,viscosity,Viscosity (rheometer); 1.5 M,50 cP
same,capacity decay in RFB cycling,"[1]; 0.1 M, two weeks (1,200+ cycles)",no observable decay
same,capacity decay in RFB cycling,"[1]; 1.5 M, one month continual cycling",no discernable decay
same,Anolyte-limiting RFB Stability,[1]; Table 1,~0% decay/year
same,RFB Viologen Molarity (1e^−),[1]; Table 1,1.5
same,degradation rate constant k,[2],2.3×10^−6 s^−1·M^−1/2
